In brackets after ≈: the same amount, converted by molar mass. Like-named read-outs stand apart in the source and are kept apart here.
How the values were obtained:
[1] = test system: E. coli ATCC 25922; assay: murine septicemia model of infection; type: in vivo; conditions: mice, single SC or IV dose 1 hour after IP challenge, mortality for 7 days; ED50 values are mg/kg
Experimental: (§1) Two models were run on each compound, using E. coli and P. aeruginosa QC bacterial strains. Both studies employed the same design. […] At 1 hour after bacterial challenge, the mice received a single SC or IV dose of vehicle or test substance to assess in vivo anti-infective activity. Mortality was recorded once daily for 7 days after bacterial inoculation.

[2] = test system: P. aeruginosa ATCC 27853; assay: murine septicemia model of infection; type: in vivo; conditions: mice, single SC or IV dose 1 hour after IP challenge, mortality for 7 days; ED50 values are mg/kg
Experimental: as §1

[3] = test system: A. calcoaceticus AACA005, AAC(6′)-I; assay: MIC assay, aminoglycoside resistant strain; type: cell-based; parameters: unit not given beside the values; conditions: Table 3; A. calcoaceticus AAC(6′)-I
Experimental: (§2) Minimum inhibitory concentrations (MIC) were determined by reference Clinical and Laboratory Standards Institute (CLSI) broth microdilution methods per M7-A7 [2006]. Quality control ranges utilizing E. coli ATCC 25922, P. aeruginosa ATCC 27853 and S. aureus ATCC 29213, and interpretive criteria for comparator agents were as published in CLSI M100-S17 [2007]. Briefly, serial two-fold dilutions of the test compounds were prepared at 2× concentration in Mueller Hinton Broth. The compound dilutions were mixed in 96-well assay plates in a 1:1 ratio with bacterial inoculum. The inoculum was prepared by suspension of a colony from an agar plate that was prepared the previous day. Bacteria were suspended in sterile saline and added to each assay plate to obtain a final concentration of 5×10^5 CFU/mL. The plates were incubated at 35° C. for 20 hours in ambient air.
(§3) These MIC assays were conducted following the same protocol as set forth in Example 110. As shown, substituted sisomicin derivatives with groups other than methyl at the 6′-position have improved activity against strains expressing the AAC6′-modifying enzymes.

[4] = test system: E. coli AECO040, AAC(6′)-I; assay: MIC assay, aminoglycoside resistant strain; type: cell-based; parameters: unit not given beside the values; conditions: Table 3; E. coli AAC(6′)-I
Experimental: as §2, §3

[5] = test system: E. coli ATCC 25922 (AECO001); assay: MIC assay, CLSI broth microdilution; type: cell-based; parameters: MIC AECO001: unit not given here
How it was run: (§4)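 Test compounds were diluted two-fold at 2× strength in Mueller Hinton Broth, then combined 1:1 with saline-suspended bacteria from an overnight agar colony to reach 5×10^5 CFU/mL. Incubation followed at 35° C. for 20 hours in ambient air, per CLSI reference methods.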

[6] = test system: K. pneumoniae producing KPC (n = 25); assay: MIC by microdilution, clinical isolates; type: cell-based; conditions: for S (%), susceptible isolates / MIC50 / MIC90: K. pneumoniae producing KPC (n = 25); for S (%), susceptible isolates: CLSI criteria, tigecycline US FDA criteria; for MIC50: read-out: MIC50; for MIC90: read-out: MIC90
Experimental: (§5) The in vitro activity of representative antibacterial aminoglycoside compounds against a collection of 102 K. pneumoniae clinical isolates collected from January 2006 to October 2007 at the University of Pittsburgh Medical Center, and three Cleveland institutions including University Hospitals Case Medical Center, the Cleveland Clinic, and the Louis Stokes Department of Veterans Affairs Medical Center was analyzed. The 102 K. pneumoniae isolates were selected based on a multidrug-resistant (MDR) phenotype (i.e., resistance to >3 antibiotic classes). Twenty-five isolates were KPC carbapenemase producing (KPC-Kp), and were part of a previous study where the β-lactamase background and clonality were characterized (see Endimiani, A., A. M. Hujer, F. Perez, C. R. Bethel, K. M. Hujer, J. Kroeger, M. Oethinger, D. L. Paterson, M. D. Adams, M. R. Jacobs, D. J. Diekema, G. S. Hall, S. G. Jenkins, L. B. Rice, F. C. Tenover, and R. A. Bonomo. 2009. Characterization of blaKPC-containing Klebsiella pneumoniae isolates detected in different institutions in the Eastern USA. J Antimicrob Chemother 63:427-37).
(§6) Minimum inhibitory concentrations (MICs) were performed by microdilution method using cation-adjusted Mueller-Hinton broth, according to the Clinical and Laboratory Standards Institute (CLSI) criteria (see CLSI. 2006. Methods for dilution antimicrobial susceptibility tests for bacteria that grow aerobically; approved standard-Seventh edition. Clinical and Laboratory Standard Institute, Wayne, Pa. CLSI document M7-A7). These MIC assays were conducted following the same protocol as set forth in Example 110. […] The following ATCC control strains were used: Escherichia coli ATCC 25922, Pseudomonas aeruginosa ATCC 27853, and K. pneumoniae ATCC 700603.

[7] = test system: multidrug-resistant (MDR) K. pneumoniae isolates (n = 102); assay: MIC by microdilution, clinical isolates; type: cell-based; conditions: for MIC50 / MIC90 / S (%), susceptible isolates: Total MDR K. pneumoniae isolates (n = 102); for MIC50: read-out: MIC50; for S (%), susceptible isolates: CLSI criteria, tigecycline US FDA criteria
Experimental: as §5, §6

[8] = test system: P. aeruginosa ATCC 27853 (APAE001); assay: MIC assay, CLSI broth microdilution; type: cell-based; conditions: Pseudomonas aeruginosa, ATCC27853, read-out: MIC APAE001
How it was run: as §4

[9] = Klebsiella pneumoniae, read-out: MIC90

CN[C@@H]1[C@@H](O)[C@@H](O[C@@H]2[C@@H](O)[C@H](O[C@H]3OC(CNCC(O)CN)=CC[C@H]3N)[C@@H](N)C[C@H]2NC(=O)[C@@H](O)CN)OC[C@]1(C)O (stereo partly drawn) [Example 22, 6′-(3-Amino-2-hydroxy-propyl)-1-(3-amino-2(S)-hydroxy-propionyl)-sisomicin]
ED50/MIC E. Coli [1]: 1
ED50/MIC P. aeruginosa [2]: 8

CN[C@@H]1[C@@H](O)[C@@H](O[C@@H]2[C@@H](O)[C@H](O[C@H]3OC(CN)=CC[C@H]3N)[C@@H](N)C[C@H]2N)OC[C@]1(C)O [Sisomicin]
MIC AACA005 [3]: 32
MIC AECO040 [4]: 32
MIC AECO001 ([5]; Table 3, E. coli ATCC25922): 0.5

NC[C@H]1O[C@H](O[C@H]2[C@H](O)[C@@H](O[C@H]3O[C@H](CO)[C@@H](O)[C@H](N)[C@H]3O)[C@H](N)C[C@@H]2N)[C@H](N)C[C@@H]1O [Tobramycin, tobramycin]
S (%), susceptible isolates [6]: 8.0%
S (%), susceptible isolates ([6]; listed as tobramycin): 8%
MIC50 ([6]; Klebsiella pneumoniae): 32 µg/mL (≈ 68.4 µM)
MIC90 ([6]; Klebsiella pneumoniae): ≥ 64 µg/mL
MIC50 ([7]; Klebsiella pneumoniae): 32 µg/mL (≈ 68.4 µM)
MIC90 [7, 9]: ≥ 64 µg/mL
MIC90 [7]: ≥64 µg/mL
S (%), susceptible isolates [7]: 10.8%

C[C@@H](O)[C@H]1C(=O)N2C(C(=O)O)=C(SCCN=CN)C[C@H]12 [Imipenem, imipenem]
S (%), susceptible isolates [6]: 12.0%
MIC50 ([6]; Klebsiella pneumoniae): 8 µg/mL (≈ 26.7 µM)
MIC90 ([6]; Klebsiella pneumoniae): > 16 µg/mL
MIC50 ([7]; Klebsiella pneumoniae): 0.5 µg/mL (≈ 1.67 µM)
MIC90 [7, 9]: 8 µg/mL (≈ 26.7 µM)
S (%), susceptible isolates [7]: 75.5%
S (%), susceptible isolates ([7]; listed as imipenem): approximately 75%
MIC ([5]; Escherichia coli, ATCC25922): 0.125 µg/mL (≈ 0.418 µM)

CN[C@@H]1[C@@H](O)[C@@H](O[C@@H]2[C@@H](O)[C@H](O[C@H]3OC(CNCCCN)=CC[C@H]3N)[C@@H](N)C[C@H]2NC(=O)C2(O)CNC2)OC[C@]1(C)O [Example 57]
ED50/MIC E. Coli [1]: 2
ED50/MIC P. aeruginosa [2]: 14

NCC[C@H](O)C(=O)N[C@@H]1C[C@H](N)[C@@H](O[C@H]2O[C@H](CN)CC[C@H]2N)[C@H](O)[C@H]1O[C@H]1O[C@H](CO)[C@@H](O)[C@H](N)[C@H]1O [Arbekacin, arbekacin]
MIC50 ([6]; Klebsiella pneumoniae): 8 µg/mL (≈ 14.5 µM)
MIC90 ([6]; Klebsiella pneumoniae): 16 µg/mL (≈ 29 µM)
MIC ([6]; Klebsiella pneumoniae, all KPC-Kp strains, read-out: MICs of all strains): < 32 µg/mL
MIC50 ([7]; Klebsiella pneumoniae): 4 µg/mL (≈ 7.24 µM)
MIC90 [7, 9]: 16 µg/mL (≈ 29 µM)

CN[C@@H]1[C@@H](O)[C@@H](O[C@@H]2[C@@H](O)[C@H](O[C@H]3OC(CN)=CC[C@H]3NC3CNC3)[C@@H](N)C[C@H]2NC(=O)[C@@H](O)CCN)OC[C@]1(C)O [Example 96, 2′-(Azetidin-3-yl)-1-(4-amino-2(S)-hydroxy-butyryl)-sisomicin]
ED50/MIC E. Coli [1]: <1
ED50/MIC P. aeruginosa [2]: 3

NCC[C@H](O)C(=O)N[C@@H]1C[C@H](N)[C@@H](O[C@H]2O[C@H](CN)[C@@H](O)[C@H](O)[C@H]2O)[C@H](O)[C@H]1O[C@H]1O[C@H](CO)[C@@H](O)[C@H](N)[C@H]1O [Amikacin, amikacin]
ED50/MIC E. Coli [1]: 1.5
ED50/MIC P. aeruginosa [2]: 13
S (%), susceptible isolates [6]: 48.0%
S (%), susceptible isolates ([6]; listed as amikacin): 48%
MIC50 ([6]; Klebsiella pneumoniae): 32 µg/mL (≈ 54.6 µM)
MIC90 ([6]; Klebsiella pneumoniae): 32 µg/mL (≈ 54.6 µM)
MIC50 ([7]; Klebsiella pneumoniae): 2 µg/mL (≈ 3.42 µM)
MIC90 [7, 9]: 32 µg/mL (≈ 54.6 µM)
isolates fully resistant (MICs of 64 μg/ml) ([7]; MDR K. pneumoniae isolates (n = 102)): five
S (%), susceptible isolates [7]: 78.4%
S (%), susceptible isolates ([7]; listed as amikacin): 78%

CN[C@@H]1[C@@H](O)[C@@H](O[C@@H]2[C@@H](O)[C@H](O[C@H]3OC(CNCC4CCNCC4)=CC[C@H]3N)[C@@H](N)C[C@H]2NC(=O)[C@@H](O)CN)OC[C@]1(C)O [Example 15, 6′-(Methyl-piperidin-4-yl)-1-(3-amino-2(S)-hydroxy-propionyl)-sisomicin]
ED50/MIC E. Coli [1]: <1
ED50/MIC P. aeruginosa [2]: 1
MIC [8]: 1 to 16 µg/mL (≈ 1.58 to 25.3 µM)

Source: patent US20190374563A1, “TREATMENT OF KLEBSIELLA PNEUMONIAE INFECTIONS WITH ANTIBACTERIAL AMINOGLYCOSIDE COMPOUNDS” (Achaogen, Inc., priority 2009, published 2019)
